Experimental data: patent publication US9499553B2 (CHUGAI SEIYAKU KABUSHIKI KAISHA, priority 2013, dated 2016)

molecular target: T1, human NaPi-IIb (Homo sapiens, UniProt O95436); experiment: Inhibitory effect on 33PO4 uptake into human NaPi-IIb-expressing CHO cells; type: cell-based; details: read-out: IC50
T1 construct: expressed in transfected cells
T1 sequence (O95436 1-690): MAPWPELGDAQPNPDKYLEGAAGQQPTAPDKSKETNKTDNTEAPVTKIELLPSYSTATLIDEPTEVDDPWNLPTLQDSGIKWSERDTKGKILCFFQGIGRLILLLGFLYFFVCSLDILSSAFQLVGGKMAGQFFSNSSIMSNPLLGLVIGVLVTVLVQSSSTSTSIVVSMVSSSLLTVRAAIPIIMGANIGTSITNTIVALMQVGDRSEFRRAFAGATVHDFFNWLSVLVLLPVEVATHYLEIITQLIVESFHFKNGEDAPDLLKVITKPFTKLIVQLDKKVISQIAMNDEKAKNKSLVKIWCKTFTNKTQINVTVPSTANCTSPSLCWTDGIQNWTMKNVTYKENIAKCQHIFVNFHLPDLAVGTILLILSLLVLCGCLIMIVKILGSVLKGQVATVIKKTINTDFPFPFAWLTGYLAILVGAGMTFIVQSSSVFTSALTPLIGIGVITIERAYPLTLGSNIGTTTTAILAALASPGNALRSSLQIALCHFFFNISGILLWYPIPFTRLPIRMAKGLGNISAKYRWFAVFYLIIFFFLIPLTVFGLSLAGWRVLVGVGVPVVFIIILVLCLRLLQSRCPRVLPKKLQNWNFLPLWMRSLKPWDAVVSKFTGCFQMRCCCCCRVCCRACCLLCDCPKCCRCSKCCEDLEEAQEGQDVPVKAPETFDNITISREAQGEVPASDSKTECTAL
Summary of the method: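 Uptake of ³³PO4 was measured by scintillation counting after ice-cold buffer A washes. Cells were CHO stably expressing human NaPi-IIb, seeded overnight, and exposed to ³³PO4 in buffer A at room temperature.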

SMILES	IC50 [µM]
C[C@]12CCCN1N(Cc1ccc(OCCCCCO)c(F)c1F)C(=O)C(C(=O)Nc1ccc(C(F)(F)F)cc1-c1cc(C(F)(F)F)ncn1)=C2O [Example 162]	15.1
Cc1c(C#N)ncnc1-c1cc(C(F)(F)F)ccc1NC(=O)C1=C(O)[C@@]2(C)CCCN2N(Cc2cccc(F)c2F)C1=O [Example 24]	8.1
C[C@]12CCCN1N(Cc1ccc(OCCN3CCOCC3)c(Cl)c1)C(=O)C(C(=O)Nc1ccc(C(F)(F)F)cc1-c1ccc(C(F)(F)F)nc1)=C2O [Example 149, (4aR)-1-[[3-Chloro-4-(2-morpholin-4-ylethoxy)phenyl]methyl]-4-hydroxy-4a-methyl-2-oxo-N-[4-(trifluoromethyl)-2-[6-(trifluoromethyl)pyridin-3-yl]phenyl]-6,7-dihydro-5H-pyrrolo[1,2-b]pyridazine-3-carboxamide]	19.7
COc1cccc(-c2cc(C(F)(F)F)ccc2NC(=O)C2=C(O)[C@@]3(C)CCCN3N(Cc3ccc(OC[C@H]4CCCO4)c(F)c3F)C2=O)c1OC [Example 159]	11.4
CSc1ccc(-c2cc(C(F)(F)F)ccc2NC(=O)C2=C(O)C(C)(C)N(C)N(Cc3cccc(F)c3F)C2=O)cn1 [Example 310]	4.7
C[C@]12CCCN1N(Cc1cccc(F)c1)C(=O)C(C(=O)Nc1ccc(C(F)(F)F)cc1-c1ccc(C(F)(F)F)nc1)=C2O [Example 206]	2
CSc1ccc(-c2cc(C(F)(F)F)ccc2NC(=O)C2=C(O)[C@@]3(C)CCCN3N(Cc3ccc(OCCN4CCOCC4)c(F)c3F)C2=O)cn1 [Example 103]	11
CCN1[C@@H](C(C)(C)C)C(O)=C(C(=O)Nc2ccc(Cl)cc2-c2ccc(C(F)(F)F)nc2)C(=O)N1Cc1cccc(F)c1F [Example 245]	7.7
C[C@]12CCCN1N(Cc1ccc(OCCN3CCOCC3)c(F)c1F)C(=O)C(C(=O)Nc1ccc(C(F)(F)F)nc1-c1cncc(C(F)(F)F)c1)=C2O [Example 106]	12
C[C@]12CCCN1N(Cc1cc(F)ccc1Br)C(=O)C(C(=O)Nc1cc(F)c(Br)c(F)c1)=C2O [Example 217]	4.7
CC1(C)C(O)=C(C(=O)Nc2ccc(C(F)(F)F)cc2-c2cc(C(F)(F)F)ncn2)C(=O)N(Cc2cccc(F)c2F)N1c1ccccc1 [Example 299]	18.8
CN1N(Cc2cccc(F)c2F)C(=O)C(C(=O)Nc2ccc(C(F)(F)F)nc2-c2ccc(C(F)(F)F)nc2)=C(O)C1(C)C [Example 304]	3.5
CCC1(CC)C(O)=C(C(=O)Nc2ccc(C(F)(F)F)cc2-c2cc(C(F)(F)F)ncn2)C(=O)N(Cc2ccc(OCCN3CCOCC3)c(F)c2F)N1C [Example 291]	14.7
CN1N(Cc2ccc(OCCCCCCC(=O)O)c(F)c2F)C(=O)C(C(=O)Nc2ccc(C(F)(F)F)cc2-c2cc(C(F)(F)F)ncn2)=C(O)C12CCCC2 [Example 335]	8.7
Cc1c(-c2cc(C(F)(F)F)ccc2NC(=O)C2=C(O)C3(CCCCC3)N(C)N(Cc3ccc(OCCN4CCOCC4)c(F)c3F)C2=O)ncnc1C(F)(F)F [Example 296]	10
COc1cccc(-c2cc(C(F)(F)F)ccc2NC(=O)C2=C(O)[C@@]3(C)CCCN3N(Cc3ccc(OC4CCOCC4)c(F)c3F)C2=O)c1OC [Example 158]	12.8
C[C@]12CCCN1N(Cc1cccc(Cl)c1F)C(=O)C(C(=O)Nc1ccc(C(F)(F)F)cc1-c1cc(C(F)(F)F)ncn1)=C2O [Example 209]	4.8
C[C@]12CCCN1N(Cc1cccc(Cl)c1)C(=O)C(C(=O)Nc1cc(F)c(Br)c(F)c1)=C2O [Example 221]	6.6
CC(C)[C@H]1C(O)=C(C(=O)Nc2ccc(C(F)(F)F)cc2-c2ccc(C(F)(F)F)nc2)C(=O)N(Cc2cccc(F)c2F)N1C [Example 253]	4.4
C[C@]12CCCN1N(Cc1ccccc1Cl)C(=O)C(C(=O)Nc1ccc(C(F)(F)F)cc1-c1cc(C(F)(F)F)ncn1)=C2O [Example 180]	5.7
CN1N(Cc2ccc(OCCN3C4CCC3COC4)c(F)c2F)C(=O)C(C(=O)Nc2ccc(C(F)(F)F)cc2-c2cc(C(F)(F)F)ncn2)=C(O)C12CCC2 [Example 340]	10
CN1N(Cc2cccc(F)c2F)C(=O)C(C(=O)Nc2ccc(Br)c(C(F)(F)F)n2)=C(O)C12CCCC2 [Example 263]	3
C[C@]12CCCN1N(Cc1c(F)cc(OCCCCCCOC[C@@H](O)CO)cc1F)C(=O)C(C(=O)Nc1ccc(C(F)(F)F)cc1-c1ccc(C(F)(F)F)nc1)=C2O [Example 154]	2.5
CC1(C)CC[C@]2(C)C(O)=C(C(=O)Nc3cc(C(F)(F)F)ccc3-c3ccc(C(F)(F)F)nc3)C(=O)N(Cc3cccc(F)c3F)N12 [Example 63]	8.7
C[C@]12CCCN1N(Cc1ccc(Cl)cc1)C(=O)C(C(=O)Nc1ccc(C(F)(F)F)cc1-c1cc(C(F)(F)F)ncn1)=C2O [Example 182]	5.1
Cc1c(C#N)ncnc1-c1cc(C(F)(F)F)ccc1NC(=O)C1=C(O)C2(CCC2)N(C)N(Cc2ccc(OCCN3CCOCC3)c(F)c2F)C1=O [Example 283]	17.7
Cc1cccc(CN2C(=O)C(C(=O)Nc3cc(F)c(Br)c(F)c3)=C(O)[C@@]3(C)CCCN23)c1F [Example 195]	4.6
CN1N(Cc2ccc(OCCCCCC(=O)O)c(F)c2F)C(=O)C(C(=O)Nc2ccc(C(F)(F)F)cc2-c2cc(C(F)(F)F)ncn2)=C(O)C12CCCC2 [Example 334]	10.3
Cc1ccccc1CN1C(=O)C(C(=O)Nc2ccc(C(F)(F)F)cc2-c2cc(C(F)(F)F)ncn2)=C(O)[C@@]2(C)CCCN12 [Example 185]	4.9

same assay, conditions: read-out: IC50 against 33PO4 uptake into human NaPi-IIb-expressing cells

SMILES	IC50 [µM]
CN1N(Cc2ccc(OC3COC3)c(F)c2F)C(=O)C(C(=O)Nc2ccc(C(F)(F)F)cc2-c2cc(C(F)(F)F)ncn2)=C(O)C12CCC2 [Example 403, 6-(2,3-Difluoro-4-(oxetan-3-yloxy)benzyl)-9-hydroxy-5-methyl-7-oxo-N-(4-(trifluoromethyl)-2-(6-(trifluoromethyl)pyrimidin-4-yl)phenyl)-5,6-diazaspiro[3.5]non-8-ene-8-carboxamide]	6.3
CN1N(Cc2ccc(OCCOCCOCCOCCNC(=O)[C@@H](O)[C@H](O)[C@@H](O)[C@@H](O)CO)c(F)c2F)C(=O)C(C(=O)Nc2ccc(C(F)(F)F)cc2-c2cc(C(F)(F)F)ncn2)=C(O)C12CCCC2 [Example 428, 7-[[2,3-Difluoro-4-[2-[2-[2-[2-[[(2S,3R,4S,5S)-2,3,4,5,6-pentahydroxyhexanoyl]amino]ethoxy]ethoxy]ethoxy]ethoxy]phenyl]methyl]-10-hydroxy-6-methyl-8-oxo-N-[4-(trifluoromethyl)-2-[6-(trifluoromethyl)pyrimidin-4-yl]phenyl]-6,7-diazaspiro[4.5]dec-9-ene-9-carboxamide]	23
CC(=O)NCCN(C)CCOc1ccc(CN2C(=O)C(C(=O)Nc3ccc(C(F)(F)F)cc3-c3cc(C(F)(F)F)ncn3)=C(O)C3(CCC3)N2C)c(F)c1F [Example 353]	23.9
CCCN(CCN(C)CCOC)c1ccc(CN2C(=O)C(C(=O)Nc3ccc(C(F)(F)F)cc3-c3cc(C(F)(F)F)ncn3)=C(O)C3(CCCC3)N2C)c(F)c1F [Example 444]	7.4
COCCN(C)CCOCCOCCOCCOc1ccc(CN2C(=O)C(C(=O)Nc3ccc(C(F)(F)F)cc3-c3cc(C(F)(F)F)ncn3)=C(O)C3(CCCC3)N2C)c(F)c1F [Example 431]	6.2
COCCOc1cc(NC(=O)C2=C(O)C3(CCCC3)N(C)N(Cc3ccc(OCCN(C)CCOC)c(F)c3F)C2=O)c(-c2ncnc(C(F)(F)F)c2C)cc1C(F)(F)F [Example 439, 7-[[2,3-Difluoro-4-[2-[2-methoxyethyl(methyl)amino]ethoxy]phenyl]methyl]-10-hydroxy-N-[5-(2-methoxyethoxy)-2-[5-methyl-6-(trifluoromethyl)pyrimidin-4-yl]-4-(trifluoromethyl)phenyl]-6-methyl-8-oxo-6,7-diazaspiro[4.5]dec-9-ene-9-carboxamide]	18.9
COCCN(C)CCOCCOCCOCCOCCOc1ccc(CN2C(=O)C(C(=O)Nc3ccc(C(F)(F)F)cc3-c3cc(C(F)(F)F)ncn3)=C(O)C3(CCCC3)N2C)c(F)c1F [Example 432]	6.3
CN(C[C@H](O)[C@@H](O)[C@H](O)[C@H](O)CO)C(=O)COCCOCCOCCOCCOc1ccc(CN2C(=O)C(C(=O)Nc3ccc(C(F)(F)F)cc3-c3cc(C(F)(F)F)ncn3)=C(O)C3(CCCC3)N2C)c(F)c1F [Example 441, 7-[[2,3-Difluoro-4-[2-[2-[2-[2-[2-[methyl-[(2S,3R,4R,5R)-2,3,4,5,6-pentahydroxyhexyl]amino]-2-oxoethoxy]ethoxy]ethoxy]ethoxy]ethoxy]phenyl]methyl]-10-hydroxy-6-methyl-8-oxo-N-[4-(trifluoromethyl)-2-[6-(trifluoromethyl)pyrimidin-4-yl]phenyl]-6,7-diazaspiro[4.5]dec-9-ene-9-carboxamide]	21.4
CN(CCOc1ccc(CN2C(=O)C(C(=O)Nc3ccc(C(F)(F)F)cc3-c3cc(C(F)(F)F)ncn3)=C(O)C3(CCCC3)N2C)c(F)c1F)C1CCOC1 (stereo not drawn) [Example 366]	16.3
CC(CN1CCOCC1)Oc1ccc(CN2C(=O)C(C(=O)Nc3ccc(C(F)(F)F)cc3-c3cc(C(F)(F)F)ncn3)=C(O)C3(CCC3)N2C)c(F)c1F (stereo not drawn) [Example 408]	14.6
